Experimental data: patent publication US20260035696A1, “COMBINATION TREATMENT FOR CANCER” (THE UNIVERSITY OF CHICAGO, priority 2022, published 2026)

Tested on: IκBα phosphorylation and nuclear RELA in 3×KD BM-MDSCs
Assay: Immunoblot of NF-κB signaling in 3×KD BM-MDSCs co-cultured with LPS
Assay type: cell-based, mouse
Conditions: 3×KD (Adrb2, Metrnl, Smpdl3b) BM-MDSCs, LPS 5 min
Excerpt: FIGS. 15A-15I show YTHDF2 degrades Adrb2, Metrnl, and Smpdl3b transcripts and thereby activates NF-κB signaling in MDSCs. (FIG. 15A) MDSCs were sorted from MC38 tumors in WT, WT+IR, Ythdf2-cKO, Ythdf2-cKO+IR mice and subjected to qPCR analysis of Adrb2, Metrnl and Smpdl3b mRNA level. (FIG. 15B) Graphs showing enrichment of Adrb2, Metrnl and Smpdl3b mRNA in the YTHDF2-immunoprecipitated RNA fraction of bone marrow-derived MDSCs, determined by RIP-qPCR. (FIG. 15C) MDSCs were sorted from bone marrow-derived cells from WT and Ythdf2-cKO mice and were treated with actinomycin D. mRNA was collected at indicated time points after treatment and mRNA levels of Adrb2, Metrnl and Smpdl3b were measured by RT-qPCR. […] Three days after IR, the number of tumor-infiltrating CD45.1^+CD11b^+Ly6C^hi cells was determined. […] The attached cells on the transwell membrane were visualized under a light microscope and quantified. […] Three days after IR, the number of tumor-infiltrating Ccr2^+CD11b^+Ly6C^hi cells was determined. […]
FIGS. 29A-29M show YTHDF2 degrades Adrb2, Metrnl, and Smpdl3b transcripts and thereby activates NF-κB signaling in MDSCs. […] P values were calculated by a nonparametric Wilcoxon-Mann-Whitney test. […] Metrnl and Smpdl3b mRNA in the YTHDF2-immunoprecipitated RNA fraction of bone marrow-derived MDSCs, determined by RIP-qPCR. […]

increase of IκBα phosphorylation and nuclear localization of RELA in knockdown MDSCs: prevented this increase
SMILES: Cc1ccc(S(=O)(=O)/C=C/C#N)cc1 [BAY 11-7082]
